In patent publication US20230172232A1, “COMPOSITIONS AND METHODS USING AN AMINO ACID BLEND FOR PROVIDING A HEALTH BENEFIT IN AN ANIMAL” (Société des Produits Nestlé S.A., priority 2021, published 2023):

What was measured:
[1] = tested on: Complex I (CI) respiration of isolated mitochondria from skeletal muscle; assay: Acute oxidative stress (menadione) and mitochondrial high-resolution respirometry; format: in vivo; conditions: adult zebrafish, 3 μM menadione 2 h, then glycine 50, 200, 450 μM or glucose 500 μM and 5 mM in water 2 h at 28° C.; FIG. 3
Method: Adult AB zebrafish of 4-6 months old were exposed in water to acute oxidative stress with 3 μM Menadione (Sigma-Aldrich) incubation for 2 h at 28° C. Following the stress, fish were divided into controls and treatment groups. Controls of the oxidative stress were then incubated in clean water for 2 h at 28° C. […] After BCA quantification of protein concentration, 150 μg of crude extract were used for high-resolution respirometry quantification. The Oxygraph-2k (O2k, OROBOROS Instruments) was used for measurements of respiration. Up to three O2k instruments ([…]) were used in parallel. […] Respiration of isolated mitochondria was determined using substrate-uncoupler-inhibitor titration (SUIT) protocols (Pesta and […], Methods Mol Biol. 2012; 810:25-58) with modifications. Pyruvate, glutammate and malate (5 mM, 10 mM, 2 mM, respectively) were used as substrate to induce Complex I (CI) respiration in presence of ADP (1 mM). […] CI respiration was calculated as the difference between total respiration (CI+CII) and the addition of CI inhibitor rotenone (0.5 μM); CII respiration was calculated as the difference between inhibited CI respiration and the addition of CII inhibitor malonic acid (5 mM). Total respiration (CI+CII, Tot resp) was assessed as the difference of the respiration in presence of all substrates and the total inhibition of CI and CII.

[2] = tested on: HK2 cells; assay: Luminescent Cell Viability assay by measuring ATP (CellTiter-Glo 2.0); format: cell-based; conditions: for Cell Survival (Average Lum): Table 5, additional study, 48 h in medium, Control 763 951, W/O AA 565 539
Method: An amino acid blend study was performed using HK2 cell response to evaluate kidney health benefit. The amino acid blend composed glycine, methionine, cysteine, and glutamine. Protocol for Luminescent Cell Viability assay by measuring ATP, a key indicator of cell health is detailed hereafter.
For each experiment, a frozen stock of HK2 cells banked with less than passage 4 was thawed and expanded in normal growing medium in a humidified incubator at 37° C. in 5% CO2. HK2 cells were cultured for a maximum of 3 passages prior to cellular assays and were passaged upon reaching 70-80% confluence, approximately every 3 days.
2500 HK2 cells were seeded in 384 well plate in normal growing medium. 24 h after, cells were starved during 2 hours in HBSS buffer to remove all amino acids traces and then a new medium with specific formulation is added for 48 h incubation: Control medium with all amino acids, Medium without amino acids, Medium with 4 amino acids blend, Medium with all amino acids except 4 amino acids of interest, Medium with glycine only, Medium with methionine only, Medium with cysteine only, Medium with glutamine only, and Medium with cysteine+glutamine only.
Treatment is stopped by adding a CellTiter-Glo® 2.0 assay reagent from Promega to lyse the cells, after 20 min of incubation at room temperature with under slight shaking luminescence level was measured using a luminescent plate reader as an indicator of cell viability. Presence of ATP indicates the presence of metabolically active cells.

| Compound | Complex I dependent respiration (O2 consumption of isolated mitochondria) [1] | Cell Survival (Average Lum) [2] | protective effect on cell survival (in words) ([2]; Table 5 study) |
| --- | --- | --- | --- |
| CC1=CC(=O)c2ccccc2C1=O [menadione, Menadione, reference compound] | decreasing Complex I dependent respiration | – | – |
| CSCC[C@H](N)C(=O)O [methionine] | – | 611 869 Lum | – |
| N[C@@H](CS)C(=O)O [cysteine] | – | 388 041 Lum | – |
| NCC(=O)O [glycine] | restores Complex I respiratory levels | 620 224 Lum | – |
| NC(=O)CC[C@H](N)C(=O)O [glutamine] | – | 740 156 Lum | performed similarly to the blend |
